Several values for one entry are separate records, joined by “and”; a condition that tells them apart may be missing. Identical values can stand only once. Marks after values point to notes of the source that are not given here.
How the values were obtained:
[1] = Low molecular weight heparin (LMWH) oral/intracolonic delivery, plasma LMWH by anti-Factor Xa assay; type: in vivo, Sprague-Dawley rats; conditions: IC, rats, delivery agent compound 50 mg/kg, LMWH 750 IU/kg, 1 ml/kg
Procedure: Oral dosing (PO) and/or intracolonic (IC) compositions containing a delivery agent compound and low molecular weight heparin (LMWH) were prepared in 25% aqueous propylene glycol. […] Typically, the delivery agent compound and LMWH (Parnaparin, 91 IU/mg average molecular weight about 5,000, available from Opocrin, Modena, Italy) (typically 90-105 IU/mg, average molecular weight about 5,000) were mixed by vortex as dry powders. This dry mixture was dissolved in 25% v/v aqueous propylene glycol, vortexed, and placed in a sonicator (37° C.) to produce a clear solution. The pH was adjusted to about 7 (6.5-8.5) with 2N aqueous NaOH. The dosing solution was sonicated to produce a clear solution. The final volume was adjusted to 3.0 ml.
(§1) The typical dosing and sampling protocols were as follows. […] The dosing solution was expressed slowly into the colon by pressing the syringe plunger.
Citrated blood samples were collected by cardiac puncture following the administration of ketamine (88 mg/kg), typically at 0.5, 1.0, 2.0, 3.0 and 4.0 hours after dosing. LMWH absorption was verified by an increase in plasma LMWH measured by the anti-Factor Xa assay CHROMOSTRATE™ Heparin anti-Xa assay (available from Organon Teknika Corporation, Durham, N.C.). […] The peak of these mean plasma LMWH concentrations is reported below in Table 5.

[2] = Heparin oral/intracolonic delivery, clotting time by activated partial thromboplastin time (APTT); type: in vivo, Sprague-Dawley rats; conditions: rats, baseline about 20 seconds
Procedure: Oral gavage (PO) and/or intracolonic (IC) dosing solutions containing a delivery agent compound and heparin sodium USP were prepared in 25% aqueous propylene glycol. […] This dry mixture was dissolved in 25% v/v aqueous propylene glycol, vortexed, and placed in a sonicator (about 37° C.). The pH was adjusted to about 7 (6.5 to 8.5) with aqueous NaOH (2N). The dosing solution was sonicated to produce a clear solution. The final volume was adjusted to about 3.0 ml.
as §1
Citrated blood samples were collected by cardiac puncture following the administration of ketamine (88 mg/kg), typically at 0.25, 0.5, 1.0 and 1.5 hours after dosing. Heparin absorption was verified by an increase in clotting time measured by the activated partial thromboplastin time (APTT) according to the method of Henry, J. B., Clinical Diagnosis and Management by Laboratory Methods, Philadelphia, Pa., W.B. Saunders (1979). Previous studies indicated baseline values of about 20 seconds.

[3] = Daptomycin oral delivery, plasma daptomycin by HPLC; type: in vivo, Sprague-Dawley rats; conditions: rats, delivery agent compound dose 200 mg/kg, daptomycin dose 50 mg/kg, volume dose 1 mL/kg
Procedure: Dosing solutions containing a delivery agent compound and daptomycin (Cubist Pharmaceuticals, Cambridge, Mass.) were prepared in 0.9% normal saline. […] This mixture was vortexed and placed in a sonicator (about 37° C.). The pH was adjusted to about 7.0-7.5 with aqueous HCl or NaOH. […] The mixture was vortexed to produce a uniform solution, also using sonication if necessary. The delivery agent compound solution was mixed with daptomycin from a stock solution (200 mg daptomycin/mL in 0.9% normal saline and the pH adjusted, if necessary, to between 6.0-7.0 with NaOH or HCl). The stock solution was stored frozen (−20° C.) wrapped in foil, then thawed and warmed gradually to about 25° C. before using. The delivery agent-daptomycin mixture was vortexed at low speed to produce a uniform solution. The pH was adjusted to about 7.0-7.5 with aqueous NaOH. The solution was then diluted with 0.9% normal saline to the desired volume (usually 2.0 ml) and concentration and stored wrapped in foil before use.
(§2) The typical dosing and sampling protocols were as follows.
Heparinized rat blood samples were collected via the ventral tail artery, typically at 0.25, 0.5, 0.75, 1.0, 2.0, and 4.0 hours after dosing, and stored on ice. Blood samples were then spun (centrifuged) at 11,500 rpm for 4 minutes at 4° C. to obtain the plasma (supernatant), which was stored at −70° C. The plasma daptomycin concentrations were measured by isocratic reversed phase HPLC, keeping samples at 4° C. during analysis. Blank plasma studies show baseline values of zero.
Daptomycin blood concentrations results from the individual animals in each dosage group were averaged for each time point.

[4] = Salmon calcitonin (sCT) oral delivery, serum sCT by EIA; conditions: rats, delivery agent compound dose 150 mg/kg, sCT dose 30 μg/kg
[5] = Interferon oral delivery, serum IFN by immunoassay; type: in vivo, Sprague-Dawley rats; conditions: rats, 1 ml/kg
Procedure: Dosing solutions of delivery agent compound and human interferon (IFN) were prepared in deionized water. […] This mixture was vortexed and placed in a sonicator (about 37° C.). The pH was adjusted to about 7.0 to 8.5 with aqueous NaOH. The mixture was vortexed to produce a uniform suspension or solution, also using sonication and heat if necessary.
as §2
Serum IFN concentrations were quantified using Cytoscreen Immunoassay Kit for human IFN-alpha (catalog # KHC4012 from Biosource International, Camarillo, Calif.). Previous studies indicated baseline values of about zero.

[6] = Cromolyn oral delivery, serum cromolyn by HPLC; type: in vivo, Sprague-Dawley rats; conditions: rats, delivery agent compound dose 200 mg/kg, cromolyn dose 25 mg/kg, in µg/mL (unit assumed)
Procedure: Dosing solutions containing a delivery agent compound (prepared as in Example 1) and cromolyn, disodium salt (cromolyn)(from Sigma Chemical Co., St. Louis, Mo.) were prepared in deionized water. […] This mixture was vortexed and placed in a sonicator (about 37° C.). The pH was adjusted to about 7-7.5 with aqueous NaOH. […] The mixture was vortexed to produce a uniform solution, also using sonication and heat if necessary. The delivery agent compound solution was mixed with cromolyn from a stock solution (175 mg cromolyn/ml in deionized water, pH adjusted, if necessary, with NaOH or HCl to about 7.0, stock solution stored frozen wrapped in foil, then thawed and heated to about 30° C. before using). The mixture was vortexed to produce a uniform solution, also using sonication and heat if necessary. The pH was adjusted to about 7-8 with aqueous NaOH. The solution was then diluted with water to the desired volume (usually 2.0 ml) and concentration and stored wrapped in foil before use.
as §2
Blood samples were collected via the tail artery, typically at 0.25, 0.5, 1.0 and 1.5 hours after dosing. Serum cromolyn concentrations were measured by HPLC. Samples were prepared as follows: 100 μl serum was combined with 100 μl 3N HCl and 300 μl ethyl acetate in an eppendorf tube. The tube was vortexed for 10 minutes and then centrifuged for 10 minutes at 10,000 rpm. 200 μl ethyl acetate layer was transferred to an eppendorf tube containing 67 μl 0.1 M phosphate buffer. The tube was vortexed for 10 minutes and then centrifuged for 10 minutes at 10,000 rpm. […] Previous studies indicated baseline values of about zero.

[7] = Recombinant human growth hormone (rhGH) oral delivery, serum rhGH by immunoassay; conditions: oral gavage, rats, delivery agent compound 200 mg/kg, rhGH 3 mg/kg
Procedure: Oral gavage (PO) dosing solutions of delivery agent compound and rhGH in phosphate buffer were prepared by mixing. A solution of the delivery agent compound was made either with the sodium salt of the delivery agent compound or by converting the free acid to its sodium salt.
The typical dosing and sampling protocols were as follows. Male Sprague-Dawley rats weighing 200-250 g were fasted for 24 hours and administered ketamine (44 mg/kg) and chlorpromazine (1.5 mg/kg) 15 minutes prior to dosing and again as needed to maintain anesthesia. A dosing group of five animals was administered one of the dosing solutions. An 11 cm Rusch 8 French catheter was adapted to a 1 ml syringe with a pipette tip. The syringe was filled with dosing solution by drawing the solution through the catheter, which was then wiped dry. The catheter was placed down the esophagus leaving 1 cm of tubing past the incisors. The dosing solution was administered by pressing the syringe plunger.
Blood samples were collected serially from the tail artery typically at time=15, 30, 45, 60 and 90 minutes. The five samples from each time period were pooled (except for those samples for which standard deviation (SD) and standard error (SE) are reported). Serum rHGH concentrations were quantified by an rHGH immunoassay test kit (Kit # K1F4015 from Genzyme Corporation Inc., Cambridge, Mass.).

[8] = Insulin oral delivery, serum human insulin by ELISA; conditions: rats
Procedure: Oral dosing (PO) compositions of delivery agent compound and human zinc insulin (minimum 26 IU/mg available from Calbiochem—Novabiochem Corp, La Jolla, Calif.) were prepared in deionized water. […] The pH was adjusted to about 7 to 8.5 with NaOH or HCl. […] The final delivery agent compound dose, insulin dose and dose volume amounts are listed below in Table 8.
as §2
Serum insulin levels were determined with an Insulin ELISA Test Kit (Kit # DSL-10-1600 from Diagnostic Systems Laboratories, Inc., Webster, Tex.), modifying the standard protocol in order to optimize the sensitivity and linear range of the standard curve for the volumes and concentrations of the samples used in the present protocol. […] The five values for each time point were averaged and the results plotted as serum insulin concentration versus time.

[9] = Parathyroid hormone (PTH 1-34) oral/intracolonic delivery, serum PTH by radioimmunoassay; conditions: rats, oral (PO); delivery agent compound dose 100 mg/kg, PTH dose 200 μg/kg, volume dose 1 ml/kg
Procedure: Oral gavage (PO) and/or intracolonic (IC) dosing solutions of delivery agent compound and human parathyroid hormone residues 1-34 (PTH) in deionized water were prepared. A solution of the compound was made either with the sodium salt of the delivery agent compound or by converting the free acid to its sodium salt.
The typical dosing and sampling protocols were as follows. Male Sprague-Dawley rats weighing between 200-250 g were fasted for 24 hours and administered ketamine (44 mg/kg) and chlorpromazine (1.5 mg/kg) 15 minutes prior to dosing and again as needed to maintain anesthesia. A dosing group of five animals was administered one of the dosing solutions. For oral gavage (PO), an 11 cm Rusch 8 French catheter was adapted to a 1 ml syringe with a pipette tip. The syringe was filled with dosing solution by drawing the solution through the catheter, which was then wiped dry. The catheter was placed down the esophagus leaving 1 cm of tubing past the incisors. The dosing solution was administered by pressing the syringe plunger. For intracolonic (IC) dosing, a 7.5 cm Rusch catheter tube (French 8 or 6) was adapted to a syringe with an Eppendorf pipette tip. The syringe was filled with the dosing solution by drawing the solution through the catheter tube. The catheter tube was wiped dry. K-Y jelly was applied to the tip, avoiding contact with the eye of the tube, and the tube was inserted into the colon through the anus until the tube was no longer visible. The dosing solution was injected by pressing the syringe plunger, and the tube was removed.
Previous studies indicated baseline values of about zero. Results from the animals in each group were averaged for each time point.

[10] = Insulin pulmonary delivery, serum insulin by ELISA, ratio to insulin-alone control; type: in vivo, Sprague-Dawley rats; conditions: pulmonary, rats; volume 0.4 ml/kg, delivery agent compound 0.03 mg/kg, insulin 0.3 mg/kg (so in the source)
Procedure: Dosing compositions of delivery agent compound and human insulin in water were prepared. Typically, to 1.5 mg of delivery agent compound was added deionized water to bring the volume to 1.0 ml, and the solution was vortexed. […] The pH was adjusted to between about 7.0 to 8.5 with NaOH or HCl. […] The final delivery agent compound dose, insulin dose and volume dose amounts are listed below in Table 9.
The typical dosing and sampling protocols were as follows. […] A control group of five animals was dosed insulin alone. A tracheal instillator for rodents, equipped with light (available from Penn Century, Inc., Pittsburgh, Pa.) was filled with dosing solution and inserted down the throat until the needle went into the trachea (confirmed visually). The dosing solution was administered by pressing the plunger.
Blood samples from each animal were collected serially from the tail artery, typically at 5, 15, 30, 60 and 120 minutes after dosing. […] The ratio of the area under the curve (AUC) for the test group versus that of the control group is reported below. The ratio of the maximum serum insulin concentration (Cmax) for the test group versus that of the control group is also reported below.

[11] = IC (intracolonic), delivery agent compound 50 mg/kg, heparin 25 mg/kg, volume dose 1 ml
[12] = delivery agent compound 200 mg/kg, IFN 1 mg/kg
[13] = delivery agent compound 100 mg/kg, insulin 3 mg/kg, 0.5 ml/kg

| Mean plasma Cmax [daptomycin] ± SD [3] [ng/mL] | Mean Peak Serum sCT (pg/ml ± SD) (SE) ([4]; dose volume 1 (ml)) [pg/mL] | Mean Peak serum [cromolyn] ± SD (SE) ([6]; volume dose 1 ml/kg) | Mean Peak Serum [IFN] ± SD [5, 12] | Mean Peak Serum [PTH] (pg/mL) ± SD [9] [pg/mL] | SMILES | Mean Peak APTT ± SD [2, 11] [s] | other results |
| --- | --- | --- | --- | --- | --- | --- | --- |
| 7082 ± 3860 | 349 ± 348 | 0.63 ± 0.47 | – | – | O=C(O)CCCCCOc1ccccc1O [Compound 5] | – | Mean Peak APTT ± SD ([2]; PO (oral gavage), delivery agent compound 300 mg/kg, heparin 100 mg/kg, volume dose 3 ml): 135.7 ± 17.3 s; Mean Peak Serum [IFN] ± SD ([5]; delivery agent compound 50 mg/kg, IFN 0.5 mg/kg): 1.54 ± 0.26 ng/mL and 2.1 ± 0.95 ng/mL |
| 9500 ± 5490 | – | 0.38 ± 0.15 | 6.0324 ± 2.8 ng/mL | – | O=C(O)CCCCCOc1ccccc1 [Compound 15] | – | Mean Peak Serum sCT (pg/ml ± SD) (SE) ([4]; dose volume 2 (ml)): 116 ± 88 pg/mL; Mean Peak Serum [INS] ± SD ([8]; delivery agent compound 100 mg/kg, insulin 3 mg/kg, 1 ml/kg): 1332.2 ± 1906.4 μU/ml |
| – | 50 ± 71 | – | 1 ± 2.1 ng/mL and 1.206 ng/mL | – | O=C(O)CCCCCCCOc1cccc(O)c1 [Compound 43] | – | Mean Ratio of AUC for insulin + compound versus AUC for insulin alone [10]: 1.44; AUC (Total AUC(0→∞)) of daptomycin [3]: 4555* μg-min/mL and 2895* μg-min/mL and 2820* μg-min/mL |
| – | 62 ± 99 | 0.56 ± 0.39 | 1.1 ± 0.85 ng/mL | – | O=C(O)CCCCCCCOc1ccc(O)cc1 [Compound 47, (4-hydroxyphenyl)-8-oxyoctanoic acid] | 370.3 ± 97.8 | Mean Ratio of AUC for insulin + compound versus AUC for insulin alone [10]: 0.63; Mean Peak serum [cromolyn] ± SD (SE) ([6]; volume dose 2 ml/kg): 0.55 ± 0.12; Mean Peak Serum [rhGH] ([7]; volume dose 2 ml): 9.9 ± 22.1 ng/mL |
| – | – | 0.54 ± 0.39 and 0.57 ± 0.36 | – | – | O=Cc1ccccc1OCCCCCCCC(=O)O [Compound 61] | – | Mean Peak serum [cromolyn] ± SD (SE) ([6]; volume dose 2 ml/kg): 0.39 ± 0.21; Mean Peak Serum [INS] ± SD ([8]; delivery agent compound 200 mg/kg, insulin 0.5 mg/kg, 1 ml/kg): 58.99 ± 27.15 μU/ml |

The remaining lines, values behind:

| SMILES | Mean plasma Cmax [daptomycin] ± SD [3] [ng/mL] | Mean Peak Serum sCT (pg/ml ± SD) (SE) ([4]; dose volume 1 (ml)) [pg/mL] | Mean Peak serum [cromolyn] ± SD (SE) ([6]; volume dose 1 ml/kg) | Mean Peak Serum [IFN] ± SD [5, 12] | Mean Peak Serum [PTH] (pg/mL) ± SD [9] [pg/mL] | Mean Peak APTT ± SD [2, 11] [s] | other results |
| --- | --- | --- | --- | --- | --- | --- | --- |
| O=C(O)c1ccc(COc2ccccc2O)cc1 [Compound 2] | 5070 ± 610 | – | – | – | – | 48.788 ± 32.79 | Mean Peak Plasma LMWH Concentration ± SD [1]: 1.038 ± 0.338 IU/ml; Mean Peak Serum sCT (pg/ml ± SD) (SE) ([4]; dose volume 1 (ml), 150 mg/kg): 628 ± 221 pg/mL and 449 ± 550 pg/mL and 320 ± 348 pg/mL |
| CC(=O)c1ccccc1OCCCCCC(=O)O [Compound 11] | 13270 ± 13430 | 526 ± 415 | – | – | – | 39.53 ± 8.25 | Mean Peak Plasma LMWH Concentration ± SD [1]: 0.91 ± 0.414 IU/ml; Mean Peak Serum [rhGH] ([7]; volume dose 1 ml): 35.4 ng/mL |
| CNC(=O)c1ccccc1OCCCCCCCC(=O)O [Compound 31] | – | – | – | – | 460 ± 194 | 47 ± 23.1 | Mean Peak Plasma LMWH Concentration ± SD ([1]; 50 mg/kg): 0.47 ± 0.287 IU/ml and 0.47 ± 0.332 IU/ml; Mean Peak Serum [INS] ± SD [8, 13]: 21.26 ± 6.22 μU/ml |
| CCNC(=O)c1ccccc1OCCCCCCCC(=O)O [Compound 33, 8-(2-(N-ethylbenzamide)oxy)octanoic acid] | – | 96 ± 209 | – | – | 837 ± 347 | – | Mean Peak Serum [rhGH] ([7]; volume dose 1 ml): 10.1 ng/mL and 6.9 ng/mL; Mean Peak Serum [INS] ± SD [8, 13]: 58.13 ± 52.86 μU/ml |
| CC(C)NC(=O)c1ccccc1OCCCCCCCC(=O)O [Compound 34] | – | – | – | – | 538 ± 328 | – | Mean Peak Serum sCT (pg/ml ± SD) (SE) ([4]; dose volume 1 (ml), 150 mg/kg): 103 ± 72 pg/mL and 137 ± 178 pg/mL |

— US8410309B2, “Phenoxy carboxylic acid compounds and compositions for delivering active agents” (Emisphere Technologies, Inc., priority 1999, dated 2013)
